# Measured values published in patent US20240287172A1, “PROTEIN BINDERS TO IRHOM2 EPITOPES” (SCIRHOM GMBH, priority 2019, published 2024).
# System: LPS-induced release of endogenous TNFα from human macrophages from healthy donors
# Experiment: ELISA-based TNFα release assay, LPS-induced, human macrophages from healthy donors
# Type: cell-based
# Settings: Macrophage, LPS 5 ng/ml, 2 hours, recombinant murine antibodies at 10 μg/ml, Batimastat at 10 μM
# Experimental: To obtain human macrophages, peripheral blood mononuclear cells (PBMCs) from 4 healthy donors were used. Cells from 5 ml human blood were resuspended in 20 ml of DMEM medium (Corning, USA) supplemented with 10% FCS (Atlanta Biological, USA) and Penicillin/Streptomycin (Corning, USA) (DMEM/FCS) and were then incubated on two 10 cm petri dishes (Thermo Fisher, USA) at 37° C., 5% CO2 for 3h. Non-adherent cells were subsequently removed and 6 ml of DMEM/FCS supplemented with 10 ng/ml human MCSF (Peprotech, USA) (DMEM/FCS/MCSF) was added per plate. Both plates were incubated at 37° C., 5% CO2 for 2 days, then 2 ml of DMEM/FCS/MCSF was added to each plate on day 2 and 4. On day 5, all medium was removed and attached cells were washed once with 5 ml PBS (Corning, USA). 2 ml of Accutase (Promocell, USA) solution was added to each plate and incubated at 37° C. for 15 min. 10 ml of DMEM/FCS was added to each plate and detached cells were collected in a 15 ml Falcon tube. Cells were subsequently pelleted in a tabletop centrifuge (Eppendorf, USA) at 1,500 rpm for 5 min. The medium was removed and the cells were resuspended in 2 ml of DMEM/FCS. 10 μl from this cell suspension was manually counted in a hemocytometer (Thermo Fisher, USA). […]
smiles,measurement,value
CNC(=O)[C@H](Cc1ccccc1)NC(=O)[C@H](CC(C)C)[C@H](CSc1cccs1)C(=O)NO [Batimastat],inhibition at 10 µM,68.3%
